Values joined by “and” are separate entries in the source; they are usually repeats but may differ in a detail not shown here. Equal values may be shown once.
Assays:
[1] = tested on: PI3K/PKB pathway (phospho-PKB); test: Western blot of chondrocyte lysates probed with anti-phospho-PKB (activation of PI3K/PKB pathway by PDGF); format: cell-based; conditions: primary human chondrocytes (non-OA joints), two samples
Protocol: (§1) Induction or Inhibition of PI3KI3K/PKB In Cultured Chondrocytes: In all studies described below chondrocytes were cultured in DMEM medium with or without 10% Fetal Bovine Serum (Invitrogen Life Technologies, Carlsbad, Calif.). Cultured chondrocyte cells are incubated overnight in serum free medium (DMEM) and then treated, as one of the following types of samples, 1) control samples, by incubating the cultures for 24 hour in serum free medium (DMEM) 2) induced samples, by incubating the cultures for 24 hours in serum free medium containing the PI3K/PKB inducer PDGF-BB (Invitrogen—Life Technologies Carlsbad, Calif.) or 3) PI3K/PKB inhibited samples, by pre-incubating the samples for 1 hour with the PI3K/PKB inhibitor LY294002 (Sigma, St. Louis, Mo.) and then incubating the cultures for 24 hours in serum free medium (DMEM) containing the PDGF-BB. FIG. 3 depicts activation of PI3K/PKB expression by PDGF in primary human chondrocytes. FIG. 4 depicts LY249002 (2-(4-morpholinyl)-8-phenyl-4H-1-benzopyran-4-one) inhibition of PDGF activated PI3K/PKB expression in primary human chondrocytes.
Western Blotting—Cells are incubated in serum free medium (DMEM) overnight, and then incubated for 10 minutes in fresh serum free media containing PDGF-BB (50 ng/ml)+/−LY294002 (20 μM). Cells are washed in ice cold PBS, scraped and sonicated in ice cold lysis buffer containing 50 mM Tris pH 7.4, 1% NP-40, 0.25% Na deoxycholate, 150 mM NaCl, 1 mM EGTA, 1 mM PMSF, aprotinin, leupeptin, and pepstatin (all at 1 μg/ml 1 mM Na vanadate, 1 mM NaF, and 1 μM microcystin) (Sigma, St Louis, Mo.). The protein concentration of the lysate is determined using the micro bicinchoninic acid assay (Pierce, Rockford, Ill.) and 20 μg lysate is run per lane for phospho-PKB and phospho-forkhead and 5 μg for anti-His antibody [rabbit anti-phospho-PKB-Ser473 NEB, rabbit anti-phospho-FKHRL1-Thr32 NEB, mouse anti penta-His (Qiagen, Valencia, Calif.)]. Peroxidase labeled secondary antibodies are purchased from Jackson Laboratories (Bar, Harbor, Me.). Blots are visualized with ECL reagent (Amersham, Piscataway, N.J.). […]

[2] = tested on: Collagenase-3 (COL-3) mRNA; test: RT-PCR of COL-3 mRNA in PDGF stimulated primary human chondrocytes; format: cell-based; conditions: primary human chondrocytes (non-OA joints)
Protocol: (§2) cDNA from Isolated Normal and Osteoarthritic Cartilage: A quantity of 1 μg total Isolated Normal or Osteoarthritic Cartilage RNA is treated with DNase (Ambion, Austin, Tex.) in DNase buffer (Ambion, Austin, Tex. in a quantity sufficient to make 10 μl total reaction volume and heated at 37° C. for 30 minutes. The DNase enzyme is inactivated by adding EDTA and heating at 75° C. for 5 min. cDNA is then synthesized from the reaction mixture above using Oligo dT12-18 with the Superscript Preamplification System (Life Technologies, Rockville, Md.). The final reaction volume is then adjusted to 300 μl. Cyclophilin RT-PCR is performed on each sample to allow comparative normalized PI3K, PKB, AGG-1, or COL-3 gene quantitation. Reverse transcriptase polymerase chain reaction (RT-PCR) for cyclophilin is first performed using 3 μl template utilizing the Expand Long PCR System (Roche Biochemicals, Indianapolis, Ind.). Cyclophilin RT-PCR is performed on each sample for 28 cycles to prevent saturation of the PCR products, whereas 35-40 cycles is necessary to detect less abundant genes. Loading dye is added to the 50 μl RT-PCR reaction mix, 10 μl of the dyed RT-PCR reaction mix is loaded onto a 4-20% TBE gradient gel (BioRad, Hercules, Calif.)) and separated at 200V for 45 min. The gel is stained in 1×TBE (Sigma, St. Louis, Mo.) solution containing SYBR green (1:10,000) (Molecular Probes, Eugene, Oreg.) for 1 hour and then scanned on the Storm 860—Blue Fluorescence/Chemifluorescence scanner (Molecular Dynamics, Division of Amersham Pharmacia, Piscataway, N.J.). Individual bands are quantitated using ImageQuant software (Molecular Dynamics, Division of Amersham Pharmacia, Piscataway, N.J.). The fluorescence value determined for each PCR band representing a particular gene is normalized against the fluorescence value for the cyclophilin band in the same donor sample.
(§3) Induction or Inhibition of PI3KI3K/PKB In Cultured Chondrocytes: In all studies described below chondrocytes were cultured in DMEM medium with or without 10% Fetal Bovine Serum (Invitrogen Life Technologies, Carlsbad, Calif.). […]

[3] = tested on: Collagenase-3 (MMP-13) mRNA; test: Real time PCR, fold induction of Collagenase-3 (MMP-13) mRNA in human articular chondrocytes; format: cell-based; conditions: chondrocytes from one OA patient
Protocol: (§4) Chondrocytes were isolated from 2 normal and 2 OA patents. Cells alone or those over expressing the dominant negative form of Akt (retroviral mediated gene transfer) were treated with IL-1 beta, OSM or IL-1 beta+OSM with and without the PI3K inhibitor LY294002. RNA was isolated and the levels of Agg-1, Col-3 mRNA were measured by real time PCR. All treatments in four different donors were done in duplicate.
(§5) Total RNA was isolated from pooled duplicate 96-well plates using Qiagen RNeasy 96 kit (Qiagen, Valencia, Calif.) according to the manufacturer's instructions. The optional on-column Dnase I digestion was employed to eliminate contaminating genomic DNA. First strand cDNA was synthesized using random primers with the High-Capacity cDNA Archive kit (PE Applied Biosystems, Foster City, Calif.) in a 100 ul reaction volume.
(§6) Real time PCR was performed in a 384-well format on the ABI Prism 7900HT Sequence Detection System (Applied Biosystems, Foster City, Calif.) using SYBR Green PCR Master Mix (Applied Biosystems, Foster City, Calif.). The 20 ul reaction contained 5 ul cDNA, 200 nM forward and reverse primers, and SYBR Green PCR Master Mix. The default cycling program (95° C. for 10′ and 40 cycles of 95° C., 15″, 60° C., 1′) was followed by a slow ramping step by which a melting curve is generated to confirm the specificity of the PCR product and the absence of primer dimers.
(§7) Amplification of GAPDH was used to standardize the amount of sample cDNA added to the reaction. Changes in gene expression were calculated using the Comparative Ct method which makes use of a calibrator sample. This is the sample with which all others will be compared and whose value is therefore set to 1. All other values are therefore expressed relative to the calibrator. The retroviral vector containing no cDNA insert represents the calibrator sample. The amount of target, relative to the calibrator is calculated according to the formula 2^□□CT as outlined in ABI User Bulletin #2 (PE Applied Biosystems, Foster City, Calif.).

Aggrecanase-1 mRNA = test: Real time PCR, fold induction of Aggrecanase-1 mRNA in human articular chondrocytes; format: cell-based; conditions: chondrocytes from one OA patient
Protocol: as §4, §5, §6, §7

[4] = tested on: PKB pathway (phospho-FKHRL1); test: Western blot of chondrocyte lysates probed with anti-phospho-FKHRL1; format: cell-based; conditions: PDGF 50 ng/ml alone; primary human chondrocytes (non-OA joints); two samples
Protocol: as §1, with “FIG. 3 depicts activation of PI3K/PKB expression by PDGF in primary human chondrocytes. FIG. 4 depicts LY249002 (2-(4-morpholinyl)-8-phenyl-4H-1-benzopyran-4-one) inhibition of PDGF activated PI3K/PKB expression in primary human chondrocytes.” left out
Western Blotting—Cells are incubated in serum free medium (DMEM) overnight, and then incubated for 10 minutes in fresh serum free media containing PDGF-BB (50 ng/ml)+/−LY294002 (20 μM). […] The protein concentration of the lysate is determined using the micro bicinchoninic acid assay (Pierce, Rockford, Ill.) and 20 μg lysate is run per lane for phospho-PKB and phospho-forkhead and 5 μg for anti-His antibody [rabbit anti-phospho-PKB-Ser473 NEB, rabbit anti-phospho-FKHRL1-Thr32 NEB, mouse anti penta-His (Qiagen, Valencia, Calif.)]. […]

[5] = tested on: Aggrecanase-1 (AGG-1) mRNA; test: RT-PCR of AGG-1 mRNA in PDGF stimulated primary human chondrocytes; format: cell-based; conditions: primary human chondrocytes (non-OA joints)
Protocol: as §2, §3

[6] = tested on: Collagenase-3 protein secretion; test: ELISA for COL-3 protein secretion in chondrocyte supernatants; format: cell-based, human; conditions: for Collagenase-3 protein in supernatant: 24 hr, control 2491 ± 147
Protocol: ELISA for COL-3—Chondrocyte culture cells are incubated in serum free media (DMEM) overnight, and then incubated for 1 hour in fresh serum free media without or with (50 ng/ml) PDGF-BB (Invitrogen-Life Technologies, Carlsbad, Calif.) is added to each well and incubated for an additional 24 hours. Cell culture supernatants are collected and the levels of COL-3 protein are determined for each treatment using Amersham (Piscataway, N.J.) human collagenase-3 ELISA. FIG. 5 depicts the ELISA of COL-3 protein secretion and inhibition by LY249002. Chondrocyte cells isolated as described above are incubated in serum free media overnight, and then incubated for 1 hour in fresh serum free medium (DMEM) with or without LY294002. Then 50 ng/ml PDGF-BB (Sigma, St. Louis, Mo.) is added to each well and incubated for an additional 24 hours. Chondrocyte cell culture supernatants are collected and the levels of COL-3 protein are determined for each treatment using the commercially available Amersham (Piscataway, N.J.) human collagenase-3 ELISA based assay.

[7] = PDGF 50 ng/ml + LY294002 20 μM, listed as LY2490002
[8] = inhibitor + IL-1 + Oncostatin M
[9] = inhibitor + IL-1 + Oncostatin M, listed as LY 294002

platelet-derived growth factor [PDGF]
Anti Phospho-PKB western blot signal ([1]; PDGF 50 ng/ml alone): 17940 and 22369 | Collagenase-3 gene expression (PCR amplicon gel signal) ([2]; PDGF 50 ng/ml alone): 1242 | Fold Induction of mRNA, Collagenase-3 ([3]; inducer alone, untreated 1): 36 fold | Fold Induction of mRNA, Aggrecanase-1 (Aggrecanase-1 mRNA; inducer alone, untreated 2): 10 fold | Anti-Phospho-FKHRL1 western blot signal [4]: 15838 and 16507 | Aggrecanase-1 gene expression (PCR amplicon gel signal) ([5]; PDGF 50 ng/ml alone): 418

O=c1cc(N2CCOCC2)oc2c(-c3ccccc3)cccc12 [LY294002, 2-(4-morpholinyl)-8-phenyl-4H-1-benzopyran-4-one]
Anti Phospho-PKB western blot signal ([1]; PDGF 50 ng/ml + LY294002 20 μM): 4706 and 3408 | Anti Phospho-PKB western blot signal [1, 7]: decreases PDGF induced activation of PKB | Collagenase-3 gene expression (PCR amplicon gel signal) ([2]; PDGF 50 ng/ml + LY294002 20 μM): 302 | Collagenase-3 gene expression (PCR amplicon gel signal) [2, 7]: inhibits the downstream production of mRNA for AGG-1 and COL-3 | Collagenase-3 protein in supernatant ([6]; 1 μM LY294002 in the presence of PDGF 50 ng/ml): 2374 ± 58 pg/mL | Collagenase-3 protein in supernatant ([6]; 5 μM LY294002 in the presence of PDGF 50 ng/ml): 1555 ± 104 pg/mL | Collagenase-3 protein in supernatant ([6]; 20 μM LY294002 in the presence of PDGF 50 ng/ml): 342 ± 8 pg/mL | Secretion of COL-3 protein (in words) ([6]; PDGF stimulated primary human chondrocytes): inhibits secretion of COL-3 protein | Fold Induction of mRNA, Collagenase-3 [3, 8]: blocked | Fold Induction of mRNA, Collagenase-3 [3, 9]: 19 fold | Fold Induction of mRNA, Collagenase-3 ([3]; inhibitor + IL-1): 5 fold | Fold Induction of mRNA, Collagenase-3 ([3]; inhibitor + Oncostatin M): 10 fold | Fold Induction of mRNA, Collagenase-3 ([3]; inhibitor + PDGF): 2 fold | Fold Induction of mRNA, Aggrecanase-1 (Aggrecanase-1 mRNA; [8]): blocked | Fold Induction of mRNA, Aggrecanase-1 (Aggrecanase-1 mRNA; [9]): 49 fold | Fold Induction of mRNA, Aggrecanase-1 (Aggrecanase-1 mRNA; inhibitor + IL-1): 22 fold | Fold Induction of mRNA, Aggrecanase-1 (Aggrecanase-1 mRNA; inhibitor + Oncostatin M): 45 fold | Fold Induction of mRNA, Aggrecanase-1 (Aggrecanase-1 mRNA; inhibitor + PDGF): 2 fold | Aggrecanase-1 gene expression (PCR amplicon gel signal) ([5]; PDGF 50 ng/ml + LY294002 20 μM): 0 | Aggrecanase-1 gene expression (PCR amplicon gel signal) [5, 7]: inhibits the downstream production of mRNA for AGG-1 and COL-3

Interleukin-1 [IL-1]
Fold Induction of mRNA, Collagenase-3 ([3]; inducer alone, untreated 1): 150 fold | Fold Induction of mRNA, Aggrecanase-1 (Aggrecanase-1 mRNA; inducer alone, untreated 2): 180 fold

oncostatin M
Fold Induction of mRNA, Collagenase-3 ([3]; inducer alone, untreated 1): 63 fold | Fold Induction of mRNA, Aggrecanase-1 (Aggrecanase-1 mRNA; inducer alone, untreated 2): 221 fold

Reference: patent US20060067938A1, “Methods for the treatment of osteoarthritis and compositions thereof” (priority 2001, published 2006)
